# Measurements as given in PubChem BioAssay (NCI).
#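 Interpolation was linear, between the two tested concentrations surrounding the appropriate level; five concentrations were tested over 48 hours in 96-well plates. At the TGI there is no net growth.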
# Experiments:
# Assay in all cases: NCI tumour cell line growth inhibition, 48 h
# [1] = test system: 786-0 renal
# [2] = test system: A498 renal
# [3] = test system: A549 NSCLC
# [4] = test system: ACHN renal
# [5] = test system: CAKI-1 renal
# [6] = test system: CCRF-CEM leukemia
# [7] = test system: COLO 205 colon
# [8] = test system: DLD-1 colon
# [9] = test system: DMS 114 small cell lung
# [10] = test system: EKVX NSCLC
# [11] = test system: HCC-2998 colon
# [12] = test system: HCT-116 colon
# [13] = test system: HCT-15 colon
# [14] = test system: HL-60(TB) leukemia
# [15] = test system: HOP-18 NSCLC
# [16] = test system: HOP-62 NSCLC
# [17] = test system: HOP-92 NSCLC
# [18] = test system: HT29 colon
# [19] = test system: IGROV1 ovarian
# [20] = test system: K-562 leukemia
# [21] = test system: KM12 colon
# [22] = test system: LOX IMVI melanoma
# [23] = test system: LXFL 529 NSCLC
# [24] = test system: M14 melanoma
# [25] = test system: M19-MEL melanoma
# [26] = test system: MALME-3M melanoma
# [27] = test system: MOLT-4 leukemia
# [28] = test system: NCI-H226 lung
# [29] = test system: NCI-H23 lung
# [30] = test system: NCI-H460 lung
# [31] = test system: NCI-H522 lung
# [32] = test system: OVCAR-4 ovarian
# [33] = test system: OVCAR-5 ovarian
# [34] = test system: OVCAR-8 ovarian
# [35] = test system: RPMI-8226 leukemia
# [36] = test system: SF-268 CNS
# [37] = test system: SF-295 CNS
# [38] = test system: SF-539 CNS
# [39] = test system: SK-MEL-2 melanoma
# [40] = test system: SK-MEL-28 melanoma
# [41] = test system: SK-MEL-5 melanoma
# [42] = test system: SK-OV-3 ovarian
# [43] = test system: SN12C renal
# [44] = test system: SNB-75 CNS
# [45] = test system: SR leukemia
# [46] = test system: SW-620 colon
# [47] = test system: TK-10 renal
# [48] = test system: U251 CNS
# [49] = test system: UACC-257 melanoma
# [50] = test system: UACC-62 melanoma
# [51] = test system: UO-31 renal
# [52] = test system: XF 498 CNS
# [53] = test system: DMS 273 small cell lung
# [54] = test system: KM20L2 colon
# [55] = test system: OVCAR-3 ovarian
# [56] = test system: RXF 393 renal
# [57] = test system: SNB-19 CNS
# [58] = test system: SNB-78 CNS
# [59] = test system: BT-549 breast
# [60] = test system: DU-145 prostate
# [61] = test system: MCF7 breast
# [62] = test system: MDA-MB-231 breast
# [63] = test system: MDA-MB-435
# [64] = test system: PC-3 prostate
# [65] = test system: T-47D breast
# [66] = test system: RXF-631 renal
smiles,measurement,setting,value
CCOC(=O)/C(=C/c1cccc(Cl)c1)N(CC)CC,TGI,[1],> 100 µM
same,TGI,[2],> 100 µM
same,TGI,[3],> 100 µM
same,TGI,[4],> 100 µM
same,TGI,[5],> 100 µM
same,TGI,[6],> 100 µM
same,TGI,[7],> 100 µM
same,TGI,[8],> 100 µM
same,TGI,[9],> 100 µM
same,TGI,[10],> 100 µM
same,TGI,[11],> 100 µM
same,TGI,[12],> 100 µM
same,TGI,[13],> 100 µM
same,TGI,[14],> 100 µM
same,TGI,[15],84.6 µM
same,TGI,[16],77.8 µM
same,TGI,[17],84.2 µM
same,TGI,[18],> 100 µM
same,TGI,[19],> 100 µM
same,TGI,[20],> 100 µM
same,TGI,[21],> 100 µM
same,TGI,[22],> 100 µM
same,TGI,[23],> 100 µM
same,TGI,[24],> 100 µM
same,TGI,[25],> 100 µM
same,TGI,[26],> 100 µM
same,TGI,[27],> 100 µM
same,TGI,[28],> 100 µM
same,TGI,[29],> 100 µM
same,TGI,[30],> 100 µM
same,TGI,[31],96.2 µM
same,TGI,[32],> 100 µM
same,TGI,[33],> 100 µM
same,TGI,[34],> 100 µM
same,TGI,[35],> 100 µM
same,TGI,[36],> 100 µM
same,TGI,[37],> 100 µM
same,TGI,[38],> 100 µM
same,TGI,[39],68.5 µM
same,TGI,[40],> 100 µM
same,TGI,[41],> 100 µM
same,TGI,[42],> 100 µM
same,TGI,[43],> 100 µM
same,TGI,[44],> 100 µM
same,TGI,[45],> 100 µM
same,TGI,[46],> 100 µM
same,TGI,[47],> 100 µM
same,TGI,[48],> 100 µM
same,TGI,[49],> 100 µM
same,TGI,[50],> 100 µM
same,TGI,[51],> 100 µM
same,TGI,[52],> 100 µM
COc1ccc(C)cc(=O)c1O,TGI,[1],> 100 µM
same,TGI,[2],> 100 µM
same,TGI,[3],> 100 µM
same,TGI,[4],> 100 µM
same,TGI,[5],> 100 µM
same,TGI,[6],72.5 µM
same,TGI,[7],> 100 µM
same,TGI,[8],> 100 µM
same,TGI,[9],50.4 µM
same,TGI,[53],> 100 µM
same,TGI,[10],> 100 µM
same,TGI,[12],> 100 µM
same,TGI,[13],> 100 µM
same,TGI,[14],61.5 µM
same,TGI,[15],> 100 µM
same,TGI,[16],> 100 µM
same,TGI,[17],> 100 µM
same,TGI,[18],> 100 µM
same,TGI,[19],> 100 µM
same,TGI,[20],> 100 µM
same,TGI,[21],> 100 µM
same,TGI,[54],> 100 µM
same,TGI,[22],79.7 µM
same,TGI,[23],> 100 µM
same,TGI,[24],> 100 µM
same,TGI,[25],> 100 µM
same,TGI,[26],> 100 µM
same,TGI,[27],> 100 µM
same,TGI,[28],> 100 µM
same,TGI,[29],> 100 µM
same,TGI,[30],> 100 µM
same,TGI,[31],84.8 µM
same,TGI,[55],> 100 µM
same,TGI,[32],> 100 µM
same,TGI,[33],> 100 µM
same,TGI,[35],> 100 µM
same,TGI,[56],90 µM
same,TGI,[36],> 100 µM
same,TGI,[37],> 100 µM
same,TGI,[38],> 100 µM
same,TGI,[39],> 100 µM
same,TGI,[40],> 100 µM
same,TGI,[41],> 100 µM
same,TGI,[42],> 100 µM
same,TGI,[43],> 100 µM
same,TGI,[57],> 100 µM
same,TGI,[44],> 100 µM
same,TGI,[58],> 100 µM
same,TGI,[45],38.6 µM
same,TGI,[46],> 100 µM
same,TGI,[47],> 100 µM
same,TGI,[48],> 100 µM
same,TGI,[49],> 100 µM
same,TGI,[50],> 100 µM
same,TGI,[51],> 100 µM
CN(C)CC1CCC(CN(C)C)C(=O)C1=O (centres undefined),TGI,[1],29.7 µM
same,TGI,[2],31.8 µM
same,TGI,[3],25.1 µM
same,TGI,[4],11.9 µM
same,TGI,[59],20.9 µM
same,TGI,[5],3.82 µM
same,TGI,[6],4.51 µM
same,TGI,[7],3.5 µM
same,TGI,[8],7.25 µM
same,TGI,[9],12.9 µM
same,TGI,[53],31.2 µM
same,TGI,[60],30.1 µM
same,TGI,[10],47.2 µM
same,TGI,[11],35.4 µM
same,TGI,[12],7.55 µM
same,TGI,[13],7.78 µM
same,TGI,[14],7.17 µM
same,TGI,[15],3.07 µM
same,TGI,[16],35.3 µM
same,TGI,[17],3.81 µM
same,TGI,[18],16.5 µM
same,TGI,[19],33.2 µM
same,TGI,[20],6.15 µM
same,TGI,[21],28.1 µM
same,TGI,[54],30.8 µM
same,TGI,[22],22.2 µM
same,TGI,[23],3.09 µM
same,TGI,[24],12.5 µM
same,TGI,[25],33.9 µM
same,TGI,[26],3.6 µM
same,TGI,[61],8.6 µM
same,TGI,[62],19.5 µM
same,TGI,[63],31.7 µM
same,TGI,[27],4.96 µM
same,TGI,[28],10.8 µM
same,TGI,[29],22.1 µM
same,TGI,[30],36.4 µM
same,TGI,[31],1.38 µM
same,TGI,[55],5.32 µM
same,TGI,[32],18.3 µM
same,TGI,[33],30.9 µM
same,TGI,[34],9.08 µM
same,TGI,[64],31.1 µM
same,TGI,[35],18.1 µM
same,TGI,[56],3.47 µM
same,TGI,[36],10.9 µM
same,TGI,[37],32.4 µM
same,TGI,[38],12.6 µM
same,TGI,[39],34.6 µM
same,TGI,[40],20.6 µM
same,TGI,[41],30 µM
same,TGI,[42],38.7 µM
same,TGI,[43],32.7 µM
same,TGI,[57],29.9 µM
same,TGI,[44],30.6 µM
same,TGI,[45],5.08 µM
same,TGI,[46],3.33 µM
same,TGI,[65],5.36 µM
same,TGI,[47],9.96 µM
same,TGI,[48],26.7 µM
same,TGI,[49],6.44 µM
same,TGI,[50],31.3 µM
same,TGI,[51],11 µM
same,TGI,[52],4.95 µM
COC1CC(O)C(OC(=O)c2ccccc2)C(C)O1 (centres undefined),TGI,[1],> 100 µM
same,TGI,[2],> 100 µM
same,TGI,[3],> 100 µM
same,TGI,[5],> 100 µM
same,TGI,[6],> 100 µM
same,TGI,[7],> 100 µM
same,TGI,[53],> 100 µM
same,TGI,[11],> 100 µM
same,TGI,[12],> 100 µM
same,TGI,[13],> 100 µM
same,TGI,[14],> 100 µM
same,TGI,[15],> 100 µM
same,TGI,[16],> 100 µM
same,TGI,[17],> 100 µM
same,TGI,[18],> 100 µM
same,TGI,[19],> 100 µM
same,TGI,[20],> 100 µM
same,TGI,[21],> 100 µM
same,TGI,[54],> 100 µM
same,TGI,[22],> 100 µM
same,TGI,[24],> 100 µM
same,TGI,[25],> 100 µM
same,TGI,[26],> 100 µM
same,TGI,[27],> 100 µM
same,TGI,[28],> 100 µM
same,TGI,[29],> 100 µM
same,TGI,[30],> 100 µM
same,TGI,[31],> 100 µM
same,TGI,[55],> 100 µM
same,TGI,[32],> 100 µM
same,TGI,[33],> 100 µM
same,TGI,[34],> 100 µM
same,TGI,[35],> 100 µM
same,TGI,[66],> 100 µM
same,TGI,[36],> 100 µM
same,TGI,[37],> 100 µM
same,TGI,[38],> 100 µM
same,TGI,[40],> 100 µM
same,TGI,[41],> 100 µM
same,TGI,[43],> 100 µM
same,TGI,[57],> 100 µM
same,TGI,[58],> 100 µM
same,TGI,[45],> 100 µM
same,TGI,[46],> 100 µM
same,TGI,[47],> 100 µM
same,TGI,[48],> 100 µM
same,TGI,[50],> 100 µM
same,TGI,[52],> 100 µM
